According to patent EP0696280B1, “SUBSTITUTED PYRROLIDIN-3-YL-ALKYL-PIPERIDINES USEFUL AS TACHYKININ ANTAGONISTS” (MERRELL PHARMACEUTICALS INC., priority 1993, dated 1994):
Structures can show the parent of a compound that is named as a salt. Where two headings read alike, the source gives them in different places.

Columns and labels:
[1] = target: T1, NK1 receptor (Cavia porcellus, UniProt P30547); assay: Antagonism of iodinated tachykinin binding to NK1 receptor (125I-Bolton Hunter Lys-3 labeled substance P, guinea pig lung membranes)
T1 construct: Tissues or cells were homogenized with a Polytron in 15 volumes of 50 mM Tris-HCl buffer; tissue Keystone Biologicals, Cleveland, OH; host or cells: guinea pig lung membranes
T1 sequence (P30547 whole entry): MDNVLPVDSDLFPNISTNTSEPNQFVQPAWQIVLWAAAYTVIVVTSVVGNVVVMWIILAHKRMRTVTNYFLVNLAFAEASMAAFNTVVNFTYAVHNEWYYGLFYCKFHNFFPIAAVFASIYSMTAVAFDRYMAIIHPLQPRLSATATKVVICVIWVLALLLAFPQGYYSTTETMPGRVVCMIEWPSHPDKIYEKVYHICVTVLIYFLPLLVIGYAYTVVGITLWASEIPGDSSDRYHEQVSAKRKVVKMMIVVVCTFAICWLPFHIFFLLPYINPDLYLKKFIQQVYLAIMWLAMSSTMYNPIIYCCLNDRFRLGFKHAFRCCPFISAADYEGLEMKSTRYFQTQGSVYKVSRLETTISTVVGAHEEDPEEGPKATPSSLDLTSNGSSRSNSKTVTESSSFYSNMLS
Description: The NK1 receptor affinity of proposed tachykinin antagonists was devaluated in guinea pig lungs (Keystone Biologicals, Cleveland, OH), affinity for the NK2 receptor evaluated in HSKR-1 cells (which are mouse 3T3 fibroblasts expressing the human jejunal NK2 receptor) and NK-3 receptor affinity was evaluated in freshly collected guinea pig cerebral cortex. Tissues or cells were homogenized with a Polytron in 15 volumes of 50 mM Tris-HCl buffer (pH 7.4, 4°C) and centrifuged. The pellet was resuspended in Tris-HCl buffer and was centrifuged; the pellet was washed twice by resuspension. The final pellet was resuspended at a concentration of 40 mg/ml for tissues (guinea pig lung and cerebral cortex) and 20 mg/ml for cells in incubation buffer and remained at room temperature for at least 15 min prior to use. Receptor binding was initiated by addition of 250 µl membrane preparation in duplicate to 0.1 nM of the following radioligands: ^125I-Bolton Hunter Lys-3 labeled substance P; ^125iodohistidyl-1-neurokinin A; and ^125I-Bolton Hunter labeled Lys-4 eledoisin in a final volume of 500 µl of buffer containing 50 mM Tris-HCl (pH 7.4 at room temperature), 0.1% bovine serum albumin, 2 mM MnCl2, 40 µg/ml bacitracin, 4 µg/ml leupeptin and chymostatin, 1 µM thiorphan and various doses of the putative tachykinin antagonists. Incubations were performed at room temperature for 90 min (NK1 receptor assays) or 2 hr (NK2 and NK3 receptor assays); binding was terminated by addition of 50 mM Tris-HCl buffer (pH 7.4, 4°C) and filtration under vacuum through GF/B filters presoaked with 0.1% polyethyleneimine (NK1 receptor assays) or 0.5% bovine serum albumin (NK2 and NK3 receptor assays). Filter bound radioactivity was quantitated in a gamma counter. Nonspecific binding was defined as binding in the presence of 1 µM substance P, neurokinin A, or eledoisin. Specific binding was calculated by subtracting nonspecific binding from total binding. Competition of iodinated SP, NKA, or eledoisin binding by test compounds or standards was expressed as a percentage of this maximum competition. IC50 values (concentration required to inhibit 50% of receptor binding) were generated for each of the test compounds by nonlinear regression using an iterative curve fitting program (GraphPAD Inplot, San Diego, CA).

[2] = target: T2, NK2 receptor (Bos taurus, UniProt P05363); assay: Antagonism of NK2 receptor mediated (NKA-induced) phosphatidylinositol turnover in SKLKB82#3 cells; format: cell-based
T2 construct: expressed in transfected cells; host or cells: SKLKB82#3 cells
T2 sequence (P05363 1-384): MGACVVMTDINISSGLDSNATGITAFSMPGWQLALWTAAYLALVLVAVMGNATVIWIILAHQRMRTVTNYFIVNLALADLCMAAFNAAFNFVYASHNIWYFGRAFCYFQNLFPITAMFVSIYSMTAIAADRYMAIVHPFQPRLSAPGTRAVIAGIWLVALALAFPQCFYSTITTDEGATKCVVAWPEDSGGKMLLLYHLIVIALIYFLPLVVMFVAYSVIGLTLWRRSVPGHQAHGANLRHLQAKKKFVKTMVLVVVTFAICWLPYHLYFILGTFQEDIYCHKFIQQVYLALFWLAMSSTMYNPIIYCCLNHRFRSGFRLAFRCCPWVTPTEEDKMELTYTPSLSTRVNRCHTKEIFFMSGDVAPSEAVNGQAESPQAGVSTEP
Description: Tachykinin-mediated inositol phosphate accumulation was measured in UCll or SKLKB82#3 cells in the presence and absence of NK1 or NK2 receptor antagonists, respectively. Tissues were incubated in Krebs-Henseleit buffer at 37°C with 95% O2-5% CO2 gassing. Tissues were then incubated with fresh buffer containing 100 µCi of myo-[2-^3H(N)] inositol at 37°C for 60 min with gentle gassing. After washing twice at room temperature in 5 ml buffer containing 10 mM LiCl, tissues were incubated for 30 min at room temperature with a buffer change at 15 min. Buffer was removed and Krebs-Henseleit buffer (containing 40 µg/ml bacitracin, 4 µg/ml each of leupeptin and chymostatin, 0.1% bovine serum albumin and 10 mM each of thiorphan and LiCl) added. After 15 min, SP was added to UCll cells or NKA to SKLKB82#3 cells at various concentrations to start the reaction. After incubation for 60 min at room temperature the reaction was terminated by addition of 930 µl chloroform: methanol (1:2 by volume) to each tube, followed by 310 µl chloroform and 310 µl doubly distilled water. Samples were vortexed, centrifuged, and 0.9 ml of the aqueous (top) phase removed and added to 2 ml ddH2O. The mixture was vortexed and loaded onto a 50% Bio-Rad AG 1-X8 (formate form, 100-200 mesh) exchange column (Bio-Rad Laboratories, Hercules, CA). The columns were washed, in order, with: 1) 10 ml doubly distilled water, 2) 5 ml of 5 mM disodium tetraborate/60 mM sodium formate, and 3) 5 ml of 1 M ammonium formate/0.1 M formic acid. The third elution was collected and 1 ml counted in 7 ml scintillation fluid. A 50 µl aliquot of the organic (bottom) phase was removed, dried in a scintillation vial and counted in 7 ml scintillation fluid.
The ratio of DPM in the aqueous phase aliquot (total inositol phosphates) to the DPM in the 50 µl organic phase aliquot (total [^3H]inositol incorporated) was calculated for each sample. Data are expressed as a percent of agonist-induced accumulation of [^3H]-inositol phosphates over basal levels. The ratios in the presence of test compound and/or standards were compared to the ratios for control samples (i.e. no stimulating agonist). Dose-response graphs were constructed and the abilities of the test compounds to inhibit tachykinin-induced phosphatidylinositol turnover determined with the aid of a computer program. […] Data is expressed as percent stimulation of total inositol phosphate accumulation over basal levels and normalized to the maximum response produced by SP. […] Schild analysis is performed using dose response curves (such as those presented in Figures 1a and 1b) to obtain a value indicative of the strength of a competitive antagonist and is expressed as the pA2, which is the negative logarithm of the molar concentration of antagonist which reduces the effect of a dose of agonist to one-half of that expected at the dose of agonist. […]
Values are mean (95% confidence limits) derived from Schild analysis of 2-3 experiments per compound per receptor.

[3] = Schild analysis, NKA in SKLKB82#3 cells, mean (95% confidence limits), 2-3 experiments

| SMILES | IC50 [1] [nM] | NK-2 RECEPTOR -SLOPE [2, 3] | Kb ([2]; Schild analysis, NKA in SKLKB82#3 cells, mean (95% confidence limits), 2-3 experiments, read-out: NK-2 RECEPTOR pA2 (converted)) [nM] | affinity for NK1 receptors ([1]; result in words) | antagonism of the receptor mediated NKA induced PI turnover ([2]; SKLKB82#3 cells, Figure 1b, result in words) | Kb [2] [nM] |
| --- | --- | --- | --- | --- | --- | --- |
| COc1cccc(OC)c1C(=O)N1CCC(CCN2CCC(C(N)=O)(c3ccccc3)CC2)(c2ccc(Cl)c(Cl)c2)C1 (racemic) [Example 5A, 1-[2-[3-(3,4-dichloro-phenyl-3-yl)-1-(2,6-dimethoxy-benzoyl)-pyrrolidin-3-yl]-ethyl]-4-phenyl-piperidine-4-carboxylic acid amide hydrochloride] | 20 | 1.11 (0.99-1.23) | 44.7 | – | – | – |
| COc1cc(C(=O)N2CCC(CCN3CCC(C(N)=O)(c4ccccc4)CC3)(c3ccc(Cl)c(Cl)c3)C2)cc(OC)c1OC (stereo not drawn) [Example 3, 1-[2-[3-(3,4-dichloro-phenyl)-1-(3,4,5-trimethoxy-benzoyl)-pyrrolidin-3-yl]-ethyl]-4-phenyl-piperidine-4-carboxylic acid amide] | 5 | – | – | high affinity | dose related antagonism | – |
| COc1cc(C(=O)N2CCC(CCN3CCC(C(N)=O)(c4ccccc4)CC3)(c3ccc(Cl)c(Cl)c3)C2)cc(OC)c1OC (racemic) [Example 3A, 1-[2-[3-(3,4-dichloro-phenyl-3-yl)-1-(3,4,5-trimethoxy-benzoyl)-pyrrolidin-3-yl]-ethyl] -4-phenyl-piperidine-4-carboxylic acid amide hydrochloride] | 5.97 | 0.73 (0.49-0.97) | – | – | – | 1.78 |
